Measurements: patent US11241427B2, “Small molecule modulators of NR2F6 activity” (Regen Biopharma, Inc., priority 2015, dated 2022)
Read-outs that look alike come from different tables or passages of the source.

Target: T1, NR2F6 (ligand binding domain, amino acids 163-404) (Homo sapiens, UniProt P10588)
T1 construct: HIS (N, cleaved yes); FLAG (N, cleaved yes); TEV site (N, cleaved yes); made in house; host or cells: E. coli BL21 (DE3)
T1 sequence (P10588 163-404): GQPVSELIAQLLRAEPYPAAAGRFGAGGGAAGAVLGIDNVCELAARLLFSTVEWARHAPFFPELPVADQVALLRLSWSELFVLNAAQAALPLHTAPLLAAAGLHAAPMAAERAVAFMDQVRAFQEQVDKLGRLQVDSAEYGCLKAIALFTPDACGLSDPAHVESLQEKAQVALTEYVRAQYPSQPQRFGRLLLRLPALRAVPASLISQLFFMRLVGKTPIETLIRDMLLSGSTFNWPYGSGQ
Experiment: Thermoshift analysis (TSA) of compound binding to NR2F6
Details: for Tm: NR2F6 alone Tm 48 °C
Description: The binding interaction between target protein NR2F6 and 139 compounds selected from an in silico screen was assessed using thermoshift analysis (TSA). Thermoshift is a physical technique used to determine the melting temperature of a protein. The interaction of the ligand to the folded state of the protein shifts the melting temperature. In the experimental system used, the NR2F6 protein is mixed with the ligand and the fluorescent dye SYPRO Orange®. The fluorescence is monitored over temperature gradient between 20 and 95° C. with 0.5° C. increment. The dye binds to the hydrophobic regions of molten globules and denatured proteins resulting in an increase of fluorescence. A plot of the fluorescence is obtained and used to determine the melting temperature in absence and presence of ligand.
The ligand binding domain of NR2F6 (amino acids 163-404) was cloned for soluble expression in E. coli with an N-terminal HIS-FLAG-TEV-tag. Expression was performed in BL21 (DE3) cells. In brief, a 12L E. coli culture was induced with IPTG in logarithmic phase and further incubated over night at 18° C. Cells were harvested via centrifugation, washed with buffer and stored at […] until purification.
The purification procedure performed consists of HIS affinity chromatography, tag cleavage, negative affinity chromatography, size exclusion chromatography and ion exchange chromatography.
Thermoshift analysis was performed on 139 Compounds that were stored as powder in DMSO stocks. A reaction volume of 25 μl was used, with reaction temperatures being increased in 0.5 increments from 20-95° C. in 96 well, PCR plates (Hard-Shell®, HSP-9655). The control was NR2F6 protein alone in 1% DMSO. For performing the reaction, a reaction buffer comprising of the following was utilized: 20 mM HEPES pH 6.85, 150 mM NaCl, 10% Glycerin and 0.5 mM TCEP.
The following pipetting sequence was used: 1) Add appropriate volume of target enzyme in reaction buffer; 2) Add appropriate volume of dye SYPRO Orange® in reaction buffer; 3) Add inhibitor in 100% DMSO (1% final DMSO conc); 4) Measure fluorescence
Fluorescence was quantified using a CFX Connect™ Real-Time PCR Detection System (BioRad)
An increase in melting temperature is indicative for compound binding.

[1] = Table 1.1, 100 μM compound, 0.5 mg/ml NR2F6, 1% DMSO
[2] = Table 1.1, 100 μM compound, shift versus NR2F6 alone (Tm 48 °C)
[3] = Table 1.1, 100 μM compound, shift versus NR2F6 alone (Tm 48 °C), read-out: delta Tm

SMILES | Tm [1] [°C] | delta Tm [2] [°C] | ΔTm at 100 µM [3] [°C] | Tm (Table 1.2, 100 μM compound) [°C] | ΔTm at 100 µM [°C]
CCN(CC)S(=O)(=O)c1cccc(NC(=O)CNc2cccc(S(=O)(=O)N3CCCC3)c2)c1 [Cpd 133] | 49 | – | 1 | 49 | –
N[C@@H](Cc1cc(I)c(O)c(I)c1)C(=O)O [Cpd 86, 3,5-Diiodo-L-tyrosine] | 50 | – | – | 50 | 2
Clc1cnc(Oc2ccc(Oc3ncc(Cl)cc3Cl)cc2)c(Cl)c1 [Cpd 70, TCPOBOP] | 48 | 0 | – | – | –

Second part, led by results:

Tm [1] [°C] | delta Tm [2] [°C] | ΔTm at 100 µM [3] [°C] | SMILES | Tm (Table 1.2, 100 μM compound) [°C] | ΔTm at 100 µM [°C]
48 | 0 | – | O=C(Nc1ccccc1)c1cc([N+](=O)[O-])ccc1Cl [Cpd 62, GW 9662] | – | –
47.5 | −0.5 | – | Cc1cc(-n2c(C)cc(C(=O)CSc3ncnc4ccccc34)c2C)no1 [Cpd 122] | – | –
47.5 | −0.5 | – | c1ccc(CNc2ncnc3ccccc23)cc1 [Cpd 134] | – | –
– | – | 0 | Cc1c(C)c2c(c(C)c1O)CCC(C)(COc1ccc(CC3SC(=O)NC3=O)cc1)O2 (stereo not drawn) [Cpd 79, Troglitazone] | – | –
